In US10206394B2, “Herbicidal compounds” (Syngenta Participations AG, priority 2014, dated 2019):
Read-outs that look alike come from different tables or passages of the source.

Columns and labels:
Experiment in all cases: Glasshouse assay for herbicidal activity (pre- and post-emergence), percentage phytotoxicity
Assay type in all cases: in vivo
[1] = tested on: Alopecurus myosuroides (ALOMY); settings: Alopecurus myosuroides
Method in brief: (§1)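 Visually rated damage, 0–100%. PRE spray 1 d after sowing, scored 20 DAA; POST spray ~12 d, scored 15 DAA. Glasshouse at 65% humidity, 16 h day.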

[2] = tested on: Avena fatua (AVEFA); settings: Avena fatua
Method in brief: as §1

[3] = tested on: Echinochloa crus-galli (ECHCG); settings: Echinochloa crus-galli
Method in brief: as §1

[4] = tested on: Lolium perenne (LOLPE); settings: Lolium perenne
Method in brief: as §1

[5] = post-emergence, 360 h, POST-emergence, rate 250 g/ha, visual score 15 DAA (100%=total damage, 0%=no damage), read-out: Post-emergence herbicidal activity (percentage phytotoxicity) ALOMY POST
[6] = pre-emergence, 480 h, PRE-emergence, rate 250 g/ha, visual score 20 DAA (100%=total damage, 0%=no damage), read-out: Pre-emergence herbicidal activity (percentage phytotoxicity) ALOMY PRE
[7] = post-emergence, 360 h, POST-emergence, rate 250 g/ha, visual score 15 DAA (100%=total damage, 0%=no damage), read-out: Post-emergence herbicidal activity (percentage phytotoxicity) AVEFA POST
[8] = pre-emergence, 480 h, PRE-emergence, rate 250 g/ha, visual score 20 DAA (100%=total damage, 0%=no damage), read-out: Pre-emergence herbicidal activity (percentage phytotoxicity) AVEFA PRE
[9] = post-emergence, 360 h, POST-emergence, rate 250 g/ha, visual score 15 DAA (100%=total damage, 0%=no damage), read-out: Post-emergence herbicidal activity (percentage phytotoxicity) ECHCG POST
[10] = pre-emergence, 480 h, PRE-emergence, rate 250 g/ha, visual score 20 DAA (100%=total damage, 0%=no damage), read-out: Pre-emergence herbicidal activity (percentage phytotoxicity) ECHCG PRE
[11] = post-emergence, 360 h, POST-emergence, rate 250 g/ha, visual score 15 DAA (100%=total damage, 0%=no damage), read-out: Post-emergence herbicidal activity (percentage phytotoxicity) LOLPE POST
[12] = pre-emergence, 480 h, PRE-emergence, rate 250 g/ha, visual score 20 DAA (100%=total damage, 0%=no damage), read-out: Pre-emergence herbicidal activity (percentage phytotoxicity) LOLPE PRE
[13] = post-emergence, 360 h, Rate 250 g/ha, post-emergence, visual assessment 15 DAA, 100%=total damage, 0%=no damage, read-out: Post-emergence herbicidal activity (percentage phytotoxicity) ALOMY POST
[14] = pre-emergence, 480 h, Rate 250 g/ha, pre-emergence, visual assessment 20 DAA, 100%=total damage, 0%=no damage, read-out: Pre-emergence herbicidal activity (percentage phytotoxicity) ALOMY PRE
[15] = post-emergence, 360 h, Rate 250 g/ha, post-emergence, visual assessment 15 DAA, 100%=total damage, 0%=no damage, read-out: Post-emergence herbicidal activity (percentage phytotoxicity) AVEFA POST
[16] = pre-emergence, 480 h, Rate 250 g/ha, pre-emergence, visual assessment 20 DAA, 100%=total damage, 0%=no damage, read-out: Pre-emergence herbicidal activity (percentage phytotoxicity) AVEFA PRE
[17] = post-emergence, 360 h, Rate 250 g/ha, post-emergence, visual assessment 15 DAA, 100%=total damage, 0%=no damage, read-out: Post-emergence herbicidal activity (percentage phytotoxicity) ECHCG POST
[18] = pre-emergence, 480 h, Rate 250 g/ha, pre-emergence, visual assessment 20 DAA, 100%=total damage, 0%=no damage, read-out: Pre-emergence herbicidal activity (percentage phytotoxicity) ECHCG PRE
[19] = post-emergence, 360 h, Rate 250 g/ha, post-emergence, visual assessment 15 DAA, 100%=total damage, 0%=no damage, read-out: Post-emergence herbicidal activity (percentage phytotoxicity) LOLPE POST
[20] = pre-emergence, 480 h, Rate 250 g/ha, pre-emergence, visual assessment 20 DAA, 100%=total damage, 0%=no damage, read-out: Pre-emergence herbicidal activity (percentage phytotoxicity) LOLPE PRE

SMILES	pest or weed control at 250 g/ha [1, 5]	pest or weed control at 250 g/ha [1, 6]	pest or weed control at 250 g/ha [2, 7]	pest or weed control at 250 g/ha [2, 8]	pest or weed control at 250 g/ha [3, 9]	pest or weed control at 250 g/ha [3, 10]	pest or weed control at 250 g/ha [4, 11]	pest or weed control at 250 g/ha [4, 12]	pest or weed control at 250 g/ha [1, 13]	pest or weed control at 250 g/ha [1, 14]	pest or weed control at 250 g/ha [2, 15]	pest or weed control at 250 g/ha [2, 16]	pest or weed control at 250 g/ha [3, 17]	pest or weed control at 250 g/ha [3, 18]	pest or weed control at 250 g/ha [4, 19]	pest or weed control at 250 g/ha [4, 20]	other results
COCC(C)(C)NC(=O)CC1CC(=O)C(c2c(C)cc(C)cc2C)C1=O (centres unmarked) [Compound B180]	90%	90%	90%	60%	90%	90%	80%	90%									
Cc1cc(-c2ncc(Cl)cn2)cc(C)c1C1C(=O)CC(CC(=O)N(C)Cc2cccc(F)c2)C1=O (centres unmarked) [Compound B338]									100%	100%	100%	80%	100%	100%	90%	100%	
Cc1cc(C)c(C2C(=O)CC(CC(=O)NCC#N)C2=O)c(C)c1 (centres unmarked) [Compound A83]																	pest or weed control at 250 g/ha ([1]; post-emergence, 360 h, Rate 250 g/ha, post-emergence, assessed visually 15 DAA, 100%=total damage, 0%=no damage, read-out: Post-emergence herbicidal activity (percentage phytotoxicity) ALOMY POST): 50%; pest or weed control at 250 g/ha ([2]; post-emergence, 360 h, Rate 250 g/ha, post-emergence, assessed visually 15 DAA, 100%=total damage, 0%=no damage, read-out: Post-emergence herbicidal activity (percentage phytotoxicity) AVEFA POST): 10%; pest or weed control at 250 g/ha ([3]; post-emergence, 360 h, Rate 250 g/ha, post-emergence, assessed visually 15 DAA, 100%=total damage, 0%=no damage, read-out: Post-emergence herbicidal activity (percentage phytotoxicity) ECHCG POST): 70%; pest or weed control at 250 g/ha ([4]; post-emergence, 360 h, Rate 250 g/ha, post-emergence, assessed visually 15 DAA, 100%=total damage, 0%=no damage, read-out: Post-emergence herbicidal activity (percentage phytotoxicity) LOLPE POST): 30%
COCCCNC(=O)CC1CC(=O)C(c2c(C)cc(-n3cc(Cl)cn3)cc2C)C1=O (centres unmarked) [Compound B310]	90%	90%	100%	80%	100%	90%	70%	90%									
Cc1cc(-c2ccc(Cl)cn2)cc(C)c1C1C(=O)CC(CC(=O)N(C)C(C)(C)C)C1=O (centres unmarked) [Compound B368]									90%	90%	100%	90%	100%	100%	100%	100%	
COCCOCCCNC(=O)CC1CC(=O)C(c2c(C)cc(C)cc2C)C1=O (centres unmarked) [Compound B7]																	pest or weed control at 250 g/ha ([1]; post-emergence, 360 h, 250 g/ha, post-emergence, 15 DAA, visual assessment (100%=total damage, 0%=no damage), read-out: Post-emergence herbicidal activity (percentage phytotoxicity) ALOMY POST): 100%; pest or weed control at 250 g/ha ([1]; pre-emergence, 480 h, 250 g/ha, pre-emergence, 20 DAA, visual assessment (100%=total damage, 0%=no damage), read-out: Pre-emergence herbicidal activity (percentage phytotoxicity) ALOMY PRE): 100%; pest or weed control at 250 g/ha ([2]; post-emergence, 360 h, 250 g/ha, post-emergence, 15 DAA, visual assessment (100%=total damage, 0%=no damage), read-out: Post-emergence herbicidal activity (percentage phytotoxicity) AVEFA POST): 100%; pest or weed control at 250 g/ha ([2]; pre-emergence, 480 h, 250 g/ha, pre-emergence, 20 DAA, visual assessment (100%=total damage, 0%=no damage), read-out: Pre-emergence herbicidal activity (percentage phytotoxicity) AVEFA PRE): 90%; pest or weed control at 250 g/ha ([3]; post-emergence, 360 h, 250 g/ha, post-emergence, 15 DAA, visual assessment (100%=total damage, 0%=no damage), read-out: Post-emergence herbicidal activity (percentage phytotoxicity) ECHCG POST): 100%; pest or weed control at 250 g/ha ([3]; pre-emergence, 480 h, 250 g/ha, pre-emergence, 20 DAA, visual assessment (100%=total damage, 0%=no damage), read-out: Pre-emergence herbicidal activity (percentage phytotoxicity) ECHCG PRE): 80%; pest or weed control at 250 g/ha ([4]; post-emergence, 360 h, 250 g/ha, post-emergence, 15 DAA, visual assessment (100%=total damage, 0%=no damage), read-out: Post-emergence herbicidal activity (percentage phytotoxicity) LOLPE POST): 80%; pest or weed control at 250 g/ha ([4]; pre-emergence, 480 h, 250 g/ha, pre-emergence, 20 DAA, visual assessment (100%=total damage, 0%=no damage), read-out: Pre-emergence herbicidal activity (percentage phytotoxicity) LOLPE PRE): 90%
